test: log P by HPLC; type: physicochemical; details: EEC directive 79/831 Annex V. A8 by HPLC (gradient method, acetonitrile/0.1% aqueous phosphoric acid)

Structure (SMILES)	logP
C=C(C)CN(CC)c1c(-c2ccccc2Cl)c(Cl)nc2nc(C3CC3)nn12 [compound 447]	4.59
CC(=O)NC1CCN(c2c(-c3ccc(F)cc3F)c(Cl)nc3nc(C)nn23)C1 (stereo not shown) [compound 450]	1.73
Cc1nc2nc(Cl)c(-c3ccc(F)cc3F)c(N3CCC4(CC3)OCCO4)n2n1 [compound 284]	2.68
Fc1ccc(-c2c(Cl)nc3nc(C4CC4)nn3c2N2CCSCC2)c(F)c1 [compound 519]	3.58
FC(F)(F)C1CCCN1c1c(-c2ccccc2Cl)c(Cl)nc2nc(C3CC3)nn12 (stereo not shown) [compound 501]	4.41
Cc1nc2nc(Cl)c(-c3ccc(F)cc3F)c(N3CCC(O)C3)n2n1 (stereo not shown) [compound 415]	1.95
Cc1nc2nc(Cl)c(-c3ccc(F)cc3F)c(N3CCCCC3C)n2n1 (stereo not shown) [compound 285]	3.7
CC(=O)C1CCN(c2c(-c3ccc(F)cc3F)c(Cl)nc3nc(C)nn23)CC1 [compound 289]	2.5
Cc1nc2nc(Cl)c(-c3ccc(F)cc3F)c(N3CCCC3C)n2n1 (stereo not shown) [compound 280]	3.14
Fc1ccc(-c2c(Cl)nc3nc(C4CC4)nn3c2N2CCC(F)CC2)c(F)c1 [compound 513]	3.45

More lines, now with the values ahead:

logP	Structure (SMILES)
3.26	Cc1nc2nc(Cl)c(-c3c(F)cccc3Cl)c(N(C)Cc3ccco3)n2n1 [compound 274]
2.7	Cc1nc2nc(Cl)c(-c3ccc(F)cc3F)c(Nc3ccc(F)cc3)n2n1 [compound 299]
3.05	Cc1nc2nc(Cl)c(-c3ccccc3Cl)c(N3CCC(F)CC3)n2n1 [compound 402]
3.72	Cc1nc2nc(Cl)c(-c3c(F)cccc3Cl)c(N3CCC(C(F)(F)F)CC3)n2n1 [compound 261]
2.68	C=C(C)CNc1c(-c2ccccc2F)c(Cl)nc2nc(C)nn12 [compound 394]
2.96	CCCCONc1c(-c2c(F)cccc2F)c(Cl)nc2nc(C)nn12 [compound 434]
2.77	C#CCN(C)c1c(-c2c(F)cccc2Cl)c(Cl)nc2nc(C)nn12 [compound 271]
3.91	Cc1nc2nc(Cl)c(-c3ccccc3Cl)c(N3CCCCC3C)n2n1 (stereo not shown) [compound 401]
4.08	Cc1nc2nc(Cl)c(-c3c(F)cccc3F)c(N3CC(C)CC(C)C3)n2n1 (stereo not shown) [compound 310]
3.7	Cc1nc2nc(Cl)c(-c3ccc(F)cc3F)c(NC(C)CC(C)C)n2n1 (stereo not shown) [compound 301]
3.14	CCC(C)Nc1c(-c2c(F)cccc2Cl)c(Cl)nc2nc(C)nn12 (stereo not shown) [compound 264]
3.94	CCC1=CCN(c2c(-c3ccc(F)cc3F)c(Cl)nc3nc(C)nn23)CC1 [compound 290]
3.38	Cc1nc2nc(Cl)c(-c3ccccc3F)c(NOCc3cccc(C(F)(F)F)c3)n2n1 [compound 371]
2.55	COC(CN(C)c1c(-c2c(F)cccc2F)c(Cl)nc2nc(C)nn12)OC [compound 334]
2.54	Cc1nc2nc(Cl)c(-c3ccccc3F)c(NOC(C)C)n2n1 [compound 378]
1.91	Cc1nc2nc(Cl)c(-c3c(F)cccc3F)c(NCC#N)n2n1 [compound 420]
3.11	Cc1nc2nc(Cl)c(-c3ccccc3F)c(NC3CCCC3)n2n1 [compound 385]
3.84	CCC1=CCN(c2c(-c3c(F)cccc3F)c(Cl)nc3nc(C)nn23)CC1 [compound 316]
2.03	CNc1c(-c2c(F)cccc2F)c(Cl)nc2nc(C)nn12 [compound 422]
2.98	Cc1nc2nc(Cl)c(-c3ccccc3F)c(NOCC(C)C)n2n1 [compound 361]
3.13	Cc1nc2nc(Cl)c(-c3c(F)cccc3F)c(NOCc3ccccc3Cl)n2n1 [compound 431]
2.53	Cc1nc2nc(Cl)c(-c3ccccc3F)c(NCC(F)(F)F)n2n1 [compound 391]
3.04	COC(=O)C1CCCCN1c1c(-c2c(F)cccc2F)c(Cl)nc2nc(C)nn12 (stereo not shown) [compound 320]

same assay, conditions: HPLC

chromatographic logP	Structure (SMILES)
4.43	Fc1cc(F)c(-c2c(Cl)nc3nc(C(F)(F)F)nn3c2N2CCC(C(F)(F)F)CC2)c(F)c1 [Example 1]

same assay, conditions: HPLC, gradient method, acetonitrile/0.1% aqueous phosphoric acid; EEC directive 79/831 Annex V. A8

Structure (SMILES)	logP
Fc1ccc(-c2c(Cl)nc3nc(C4CC4)nn3c2N2CC=CCC2)c(F)c1 [compound 608]	3.72
COCCN(C)c1c(-c2ccc(F)cc2F)c(Cl)nc2nc(C(F)(F)F)nn12 [compound 545]	3.73
Fc1ccc(-c2c(Cl)nc3nc(C4CC4)nn3c2N2CCOCC2)c(Cl)c1 [compound 636]	3.18
Fc1ccc(-c2c(Cl)nc3nc(C(F)(F)F)nn3c2NCC(F)(F)F)c(F)c1 [compound 532]	3.58
FC(F)CNc1c(-c2ccc(Cl)cc2Cl)c(Cl)nc2nc(C3CC3)nn12 [compound 741]	3.42
Fc1ccc(-c2c(Cl)nc3nc(C4CC4)nn3c2NC2CCC(C(F)(F)F)CC2)c(F)c1 (stereo not shown) [compound 659]	3.93
CCc1nc2nc(Cl)c(-c3c(F)cc(F)cc3F)c(N3CCCCC3C(F)(F)F)n2n1 (stereo not shown) [compound 94]	4.27
CCN(CC1CCCO1)c1c(-c2ccc(F)cc2F)c(Cl)nc2nc(C3CC3)nn12 (stereo not shown) [compound 593]	3.78
CC1CC(C)CN(c2c(-c3ccc(F)cc3F)c(Cl)nc3nc(C4CC4)nn23)C1 (stereo not shown) [compound 610]	4.72
CC1(C)CCN(c2c(-c3ccc(F)cc3F)c(Cl)nc3nc(C(F)(F)F)nn23)CC1 [compound 800]	5.03
CC(Nc1c(-c2ccc(F)cc2Cl)c(Cl)nc2nc(C3CC3)nn12)C(F)(F)F (single isomer, unassigned) [compound 768]	3.77
CCOC(=O)CN(C)c1c(-c2ccc(F)cc2F)c(Cl)nc2nc(C3CC3)nn12 [compound 717]	3.28
CCCN(CCOC)c1c(-c2ccc(F)cc2F)c(Cl)nc2nc(C3CC3)nn12 [compound 602]	3.84
CCCN(Cc1cccs1)c1c(-c2ccc(F)cc2F)c(Cl)nc2nc(C3CC3)nn12 [compound 601]	4.64
CC(=O)NC1CCN(c2c(-c3ccc(F)cc3F)c(Cl)nc3nc(C(F)(F)F)nn23)CC1 [compound 806]	2.71
CN(C)CCN(C)c1c(-c2ccc(F)cc2F)c(Cl)nc2nc(C3CC3)nn12 [compound 661]	1.56
Fc1ccc(-c2c(Cl)nc3nc(C(F)(F)F)nn3c2NCC2CC2)c(F)c1 [compound 533]	3.8
C=C(C)CN(CC)c1c(-c2ccc(F)cc2Cl)c(Cl)nc2nc(C)nn12 [compound 643]	4.06
CN(CC1OCCO1)c1c(-c2ccc(F)cc2F)c(Cl)nc2nc(C3CC3)nn12 [compound 663]	3.1
Fc1ccc(-c2c(Cl)nc3nc(C4CC4)nn3c2NCCC(F)(F)F)c(F)c1 [compound 648]	3.25
C=C(C)CN(CC)c1c(-c2c(F)cc(F)cc2F)c(Cl)nc2nc(C(F)(F)F)nn12 [compound 10]	4.73
CC(C)CNc1c(-c2ccc(Cl)cc2Cl)c(Cl)nc2nc(C3CC3)nn12 [compound 790]	4.3
CC(C)CN(N)c1c(-c2ccc(Cl)cc2Cl)c(Cl)nc2nc(C3CC3)nn12 [compound 750]	4.36
Fc1ccc(-c2c(Cl)nc3nc(C(F)(F)F)nn3c2NC2CC2)c(F)c1 [compound 531]	3.49
CC(Nc1c(-c2ccc(F)cc2Cl)c(Cl)nc2nc(C3CC3)nn12)C(F)(F)F (single isomer, unassigned) [compound 767]	3.73

More lines, now with the values ahead:

logP	Structure (SMILES)
0.75	Cc1nc2nc(Cl)c(-c3ccccc3Cl)c(N3CCC(O)C3)n2n1 (stereo not shown) [compound 245]
3.63	Cc1nc2nc(Cl)c(-c3ccccc3Cl)c(N3CCC(C(F)(F)F)CC3)n2n1 [compound 232]
2.86	Cc1nc2nc(Cl)c(-c3c(F)cc(F)cc3F)c(N3CCCC3)n2n1 [compound 59]
2.54	Cc1nc2nc(Cl)c(-c3ccc(F)cc3Cl)c(NCC(F)F)n2n1 [compound 697]
1.93	Cc1nc2nc(Cl)c(-c3c(F)cc(F)cc3F)c(NC(C)CO)n2n1 (stereo not shown) [compound 122]
1.5	Cc1nc2nc(Cl)c(-c3c(F)cc(F)cc3F)c(N(C)CCN(C)C)n2n1 [compound 148]
2.38	C=CCONc1c(-c2c(F)cccc2F)c(Cl)nc2nc(C)nn12 [compound 140]
3.82	CC(C)C(C)Nc1c(-c2c(F)cccc2F)c(Cl)nc2nc(C3CC3)nn12 (stereo not shown) [compound 751]
3.04	Fc1cccc(F)c1-c1c(Cl)nc2nc(C3CC3)nn2c1NCC(F)(F)F [compound 771]
2.88	Cc1nc2nc(Cl)c(-c3c(F)cccc3F)c(NOCC(C)C)n2n1 [compound 135]
2.75	CCCNc1c(-c2c(F)cc(F)cc2F)c(Cl)nc2nc(C)nn12 [compound 61]
2.74	COC(OC)C(C)Nc1c(-c2c(F)cc(F)cc2F)c(Cl)nc2nc(C)nn12 (stereo not shown) [compound 123]
3.01	Cc1nc2nc(Cl)c(-c3c(F)cccc3Cl)c(NC(C)C(F)(F)F)n2n1 (stereo not shown) [compound 132]
2.77	Cc1nc2nc(Cl)c(-c3ccc(F)cc3F)c(NCC3CC3)n2n1 [compound 200]
3.56	Cc1nc2nc(Cl)c(-c3c(F)cccc3F)c(NC(C)C(C)(C)C)n2n1 (stereo not shown) [compound 685]
2.42	COCCNc1c(-c2c(F)cccc2Cl)c(Cl)nc2nc(C)nn12 [compound 257]
2.68	Cc1nc2nc(Cl)c(-c3c(F)cccc3F)c(NOC(C)(C)C)n2n1 [compound 141]
3.09	Cc1nc2nc(Cl)c(-c3ccccc3Cl)c(N3CCSCC3)n2n1 [compound 235]
3.11	CCOC(=O)CN(CC)c1c(-c2ccccc2Cl)c(Cl)nc2nc(C)nn12 [compound 240]
3.7	Cc1nc2nc(Cl)c(-c3c(F)cc(F)cc3F)c(NC(C)(C)C(F)(F)F)n2n1 [compound 88]
3.23	Cc1nc2nc(Cl)c(-c3c(F)cc(F)cc3F)c(NC3CCCC3)n2n1 [compound 62]
2.76	Cc1nc2nc(Cl)c(-c3ccc(F)cc3F)c(NCCC(F)(F)F)n2n1 [compound 195]
2.69	Cc1nc2nc(Cl)c(-c3c(F)cc(F)cc3F)c(NCC(F)(F)F)n2n1 [compound 13]

Reference: patent US7186831B2, “5-halo-2-alkyl[1,2,4]triazolo[1,5-a]pyrimidin-7-amines” (priority 2001, dated 2007)
